From patent US10233188B2, “CDK2/4/6 inhibitors” (priority 2016, dated 2019) come the findings set out here.

For assay [1], the target named is CDK2/Cyclin E1 (Homo sapiens (Human), UniProt P24941). In words: biochemical. Particulars: CDK2_Ki (nM), phosphorylated CDK2/Cyclin E1, 150 μM ATP, Morrison tight-binding fit.
Procedure: The assay was initiated with the addition of ATP, following a fifteen minutes pre-incubation of enzyme and inhibitor at room temperature in the reaction mixture. The reaction was stopped after 45 minutes at room temperature by the addition of 50 μL of 80 mM EDTA, pH 7.5.
Assay [2] deals with CDK6/Cyclin D1 (Homo sapiens (Human), UniProt Q00534). In words: biochemical. Particulars: CDK6_Ki (nM), non-phosphorylated CDK6/Cyclin D1, 2 mM ATP, Morrison fit.
CDK6/Cyclin D1, sequence (Q00534 whole entry): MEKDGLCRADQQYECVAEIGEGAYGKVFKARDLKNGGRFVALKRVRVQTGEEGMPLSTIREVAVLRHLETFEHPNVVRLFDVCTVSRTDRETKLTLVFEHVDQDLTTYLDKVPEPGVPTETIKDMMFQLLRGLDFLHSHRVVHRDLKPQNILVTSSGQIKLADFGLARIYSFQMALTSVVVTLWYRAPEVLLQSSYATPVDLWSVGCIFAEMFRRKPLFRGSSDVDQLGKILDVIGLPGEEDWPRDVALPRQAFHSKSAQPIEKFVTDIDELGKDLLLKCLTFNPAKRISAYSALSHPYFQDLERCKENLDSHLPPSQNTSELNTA
CDK6/Cyclin D1, sequence (P24385 whole entry partner): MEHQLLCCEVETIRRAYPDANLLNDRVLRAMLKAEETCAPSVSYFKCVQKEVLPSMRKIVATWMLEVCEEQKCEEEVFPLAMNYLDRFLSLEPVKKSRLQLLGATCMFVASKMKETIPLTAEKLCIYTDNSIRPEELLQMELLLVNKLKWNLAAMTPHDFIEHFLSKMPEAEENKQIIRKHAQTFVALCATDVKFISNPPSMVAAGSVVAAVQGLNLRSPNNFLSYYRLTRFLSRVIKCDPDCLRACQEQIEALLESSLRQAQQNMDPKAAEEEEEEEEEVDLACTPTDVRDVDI

Broadly, the Ki is the equilibrium dissociation constant of an inhibitor or competing ligand from its target. A low value points to higher affinity. Consider `C[C@H]1[C@@H](O)CC[C@@H]1n1c(=O)c(C(F)F)cc2cnc(NC3CCN(S(C)(=O)=O)CC3)nc21` (single isomer, unassigned) [Example 205, (+)-6-(difluoromethyl)-8-[(1 R*,2S*,3R*)-3-hydroxy-2-methylcyclopentyl]-2-{[1-(methylsulfonyl)piperidin-4-yl]amino}pyrido[2,3-d]pyrimidin-7(8H)-one], for which the values for the inhibition constant (Ki) in assay [1] and in assay [2] were 5.22 nM and 1.27 nM, respectively.
`C[C@@H]1[C@@H](O)CC[C@@H]1n1c(=O)ccc2cnc(NC3CCN(S(C)(=O)=O)CC3)nc21` (single isomer, unassigned) [Example 209, (+)-8-[(1R*,2R*,3R*)-3-hydroxy-2-methylcyclopentyl]-2-{[1-(methylsulfonyl)piperidin-4-yl]amino}pyrido[2,3-d]pyrimidin-7(8H)-one]: the inhibitory constant (Ki) in assay [1] came to 0.5 nM; in assay [2], 0.75 nM.
The like results for `C[C@H]1[C@H](O)CC[C@H]1n1c(=O)ccc2cnc(NC3CCN(S(C)(=O)=O)CC3)nc21` (single isomer, unassigned) [Example 210, (−)-8-[(1R*,2R*,3R*)-3-hydroxy-2-methylcyclopentyl]-2-{[1-(methylsulfonyl)piperidin-4-yl]amino}pyrido[2,3-d]pyrimidin-7(8H)-one] were, in that order, 5.36 nM and 3.15 nM.
For `CS(=O)(=O)N1CCC(Nc2ncc3cc(CC(N)=O)c(=O)n([C@@H]4CCC[C@@H](O)C4)c3n2)CC1` (single isomer, unassigned) [Example 213, (+)-2-(8-[(1R*,3R*)-3-hydroxycyclohexyl]-2-{[1-(methylsulfonyl)piperidin-4-yl]amino}-7-oxo-7,8-dihydropyrido[2,3-d]pyrimidin-6-yl)acetamide], the results for the inhibitory constant (Ki) in assay [1] and in assay [2] were 1.73 nM and 9.15 nM, respectively.
As for `CS(=O)(=O)N1CCC(Nc2ncc3cc(CC(N)=O)c(=O)n([C@H]4CCC[C@H](O)C4)c3n2)CC1` (single isomer, unassigned) [Example 214, (−)-2-(8-[(1R*,2R*)-3-hydroxycyclohexyl]-2-{[1-(methylsulfonyl)piperidin-4-yl]amino}-7-oxo-7,8-dihydropyrido[2,3-d]pyrimidin-6-yl)acetamide], the Ki in assay [1] is 27.8 nM; in assay [2], 83.3 nM.
The like results for `CS(=O)(=O)N1CCC(Nc2ncc3ccc(=O)n([C@H]4C[C@H](O)CC[C@@H]4F)c3n2)CC1` (single isomer, unassigned) [Example 217, (+)-8-[(1S*,2S*,5R*)-2-fluoro-5-hydroxycyclohexyl]-2-{[1-(methylsulfonyl)piperidin-4-yl]amino}pyrido[2,3-d]pyrimidin-7(8H)-one] were, in that order, 0.55 nM and 2 nM.
The like results for `CS(=O)(=O)N1CCC(Nc2ncc3ccc(=O)n([C@@H]4C[C@@H](O)CC[C@H]4F)c3n2)CC1` (single isomer, unassigned) [Example 218, (−)-8-[(1S*,2S*,5R*)-2-fluoro-5-hydroxycyclohexyl]-2-{[1-(methylsulfonyl)piperidin-4-yl]amino}pyrido[2,3-d]pyrimidin-7(8H)-one] were, in that order, 6.28 nM and 14.3 nM.
In the same order, the values of `CNS(=O)(=O)N1CCC(Nc2ncc3ccc(=O)n([C@H]4C[C@H](O)CC[C@@H]4F)c3n2)CC1` (single isomer, unassigned) [Example 219, (+)-4-({8-[(1S*,2S*,5R*)-2-fluoro-5-hydroxycyclohexyl]-7-oxo-7,8-dihydropyrido[2,3-d]pyrimidin-2-yl}amino)-N-methylpiperidine-1-sulfonamide] are 0.78 nM and 3.9 nM.
With `CNS(=O)(=O)N1CCC(Nc2ncc3ccc(=O)n([C@@H]4C[C@@H](O)CC[C@H]4F)c3n2)CC1` (single isomer, unassigned) [Example 220, (−)-4-({8-[(1S*,2S*,5R*)-2-fluoro-5-hydroxycyclohexyl]-7-oxo-7,8-dihydropyrido[2,3-d]pyrimidin-2-yl}amino)-N-methylpiperidine-1-sulfonamide], the Ki in assay [1] is 7.46 nM; in assay [2] it was 18.3 nM.
`C[C@@H]1[C@H](O)CCC[C@H]1n1c(=O)ccc2cnc(NC3CCN(S(C)(=O)=O)CC3)nc21` (single isomer, unassigned) [Example 221, (−)-8-[(1S*,2R*,3S*)-3-hydroxy-2-methylcyclohexyl]-2-{[1-(methylsulfonyl)piperidin-4-yl]amino}pyrido[2,3-d]pyrimidin-7(8H)-one]: the figures for the Ki in assay [1] and in assay [2] were 0.13 nM and 0.36 nM, respectively.
Consider `CC1(C)CC(Nc2ncc3cc(CCO)c(=O)n(C4CCCC4)c3n2)CCN1S(C)(=O)=O` (single isomer, unassigned; (+)) [Example 162, (+)-8-cyclopentyl-2-{[2,2-dimethyl-1-(methylsulfonyl)piperidin-4-yl]amino}-6-(2-hydroxyethyl)pyrido[2,3-d]pyrimidin-7(8H)-one], for which the values for the Ki in assay [1] and in assay [2] were 3.92 nM and 12.3 nM, respectively.
As for `Cc1cc2cnc(NC3CCN(S(=O)(=O)C4CCS(=O)(=O)C4)CC3)nc2n([C@@H]2CCC[C@@]2(C)O)c1=O` (single isomer, unassigned; isomer a) [Example 106, (−)-2-[(1-{[(3ξ)-1,1-dioxidotetrahydrothiophen-3-yl]sulfonyl}piperidin-4-yl)amino]-8-[(1R*,2R*)-2-hydroxy-2-methylcyclopentyl]-6-methylpyrido[2,3-d]pyrimidin-7(8H)-one-Isomer A], the inhibitory constant (Ki) in assay [1] is 0.16 nM; in assay [2], 0.11 nM.
The like results for `Cc1cc2cnc(NC3CCN(S(C)(=O)=O)CC3)nc2n(C2CCCCC(O)C2)c1=O` (single isomer, unassigned; isomer a) [Example 223, 8-(3-hydroxycycloheptyl)-6-methyl-2-{[1-(methylsulfonyl)piperidin-4-yl]amino}pyrido[2,3-d]pyrimidin-7(8H)-one-Isomer A] were, in that order, 57.1 nM and 21 nM.
Take `Cc1cc2cnc(NC3CCN(S(=O)(=O)C4CCS(=O)(=O)C4)CC3)nc2n([C@H]2CCC[C@]2(C)O)c1=O` (single isomer, unassigned; isomer b) [Example 107, (+)-2-[(1-{[(3ξ)-1,1-dioxidotetrahydrothiophen-3-yl]sulfonyl}piperidin-4-yl)amino]-8-[(1R*,2R*)-2-hydroxy-2-methylcyclopentyl]-6-methylpyrido[2,3-d]pyrimidin-7(8H)-one-Isomer B]: the inhibitory constant (Ki) was determined as 9.91 nM in assay [1] and 184 nM in assay [2].
The like results for `CS(=O)(=O)N1CC[C@H](Nc2ncc3cc(N)c(=O)n(C4CCCC4)c3n2)[C@H](F)C1` (single isomer, unassigned; isomer b) [Example 150, 6-amino-8-cyclopentyl-2-{[(3R*,4S*)-3-fluoro-1-(methylsulfonyl)piperidin-4-yl]amino}pyrido[2,3-d]pyrimidin-7(8H)-one-Isomer B] were, in that order, 2.63 nM and 1.32 nM.
In the same order, the values of `Cc1cc2cnc(NC3CCN(S(C)(=O)=O)CC3)nc2n(C2CCCCC(O)C2)c1=O` (single isomer, unassigned; isomer b) [Example 224, 8-(3-hydroxycycloheptyl)-6-methyl-2-{[1-(methylsulfonyl)piperidin-4-yl]amino}pyrido[2,3-d]pyrimidin-7(8H)-one-Isomer B] are 24.9 nM and 12 nM.
On to `Cc1cc2cnc(NC3CCN(S(=O)(=O)C4CCS(=O)(=O)C4)CC3)nc2n([C@H]2CCC[C@]2(C)O)c1=O` (single isomer, unassigned; isomer c) [Example 108, (+)-2-[(1-{[(3ξ)-1,1-dioxidotetrahydrothiophen-3-yl]sulfonyl}piperidin-4-yl)amino]-8-[(1R*,2R*)-2-hydroxy-2-methylcyclopentyl]-6-methylpyrido[2,3-d]pyrimidin-7(8H)-one-Isomer C], for which the inhibition constant Ki in assay [1] is 3.27 nM; in assay [2], 3.99 nM.
In the same order, the values of `Cc1cc2cnc(NC3CCN(S(C)(=O)=O)CC3)nc2n(C2CCCCC(O)C2)c1=O` (single isomer, unassigned; isomer c) [Example 225, 8-(3-hydroxycycloheptyl)-6-methyl-2-{[1-(methylsulfonyl)piperidin-4-yl]amino}pyrido[2,3-d]pyrimidin-7(8H)-one-Isomer C] are 4.63 nM and 3.13 nM.
For the compound `Cc1cc2cnc(NC3CCN(S(=O)(=O)C4CCS(=O)(=O)C4)CC3)nc2n([C@@H]2CCC[C@@]2(C)O)c1=O` (single isomer, unassigned; isomer d) [Example 109, (−)-2-[(1-{[(3ξ)-1,1-dioxidotetrahydrothiophen-3-yl]sulfonyl}piperidin-4-yl)amino]-8-[(1R*,2R*)-2-hydroxy-2-methylcyclopentyl]-6-methylpyrido[2,3-d]pyrimidin-7(8H)-one-Isomer D], the inhibitory constant (Ki) was 0.14 nM in assay [1] and 0.19 nM in assay [2].
In the same order, the values of `Cc1cc2cnc(NC3CCN(S(C)(=O)=O)CC3)nc2n(C2CCCCC(O)C2)c1=O` (single isomer, unassigned; isomer d) [Example 226, 8-(3-hydroxycycloheptyl)-6-methyl-2-{[1-(methylsulfonyl)piperidin-4-yl]amino}pyrido[2,3-d]pyrimidin-7(8H)-one-Isomer D] are 310 nM and 6.58 nM.
In the same order, the values of `CC1CCC[C@@H]1n1c(=O)c(CC(N)=O)cc2cnc(NC3CCN(S(C)(=O)=O)CC3)nc21` (stereo in doubt) [Example 166, 2-(8-[(1S,2S)-2-methylcyclopentyl]-2-{[1-(methylsulfonyl)piperidin-4-yl]amino}-7-oxo-7,8-dihydropyrido[2,3-d]pyrimidin-6-yl)acetamide] are 2.23 nM and 6.71 nM.
Consider `CNS(=O)(=O)N1CCC(Nc2ncc3ccc(=O)n(C4CCCC4)c3n2)CC1` [Example 11, 4-[(8-cyclopentyl-7-oxo-7,8-dihydropyrido[2,3-d]pyrimidin-2-yl)amino]-N-methylpiperidine-1-sulfonamide], for which the figures for the Ki in assay [1] and in assay [2] were 0.67 nM and 2.99 nM, respectively.
